Source: PubChem BioAssay AID1963959 (Molecular Pharmacology Branch, DTP, NCI, 2024)

Test system: T-47D spheroids with HUVEC/MSC, viability
Test: Anticancer human tumor T-47D cell line growth inhibition [PI3K];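 also: spheroids exposed to agents for seven days before reading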;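 as to viability, T/C: percent of DMSO vehicle control luminescence so 100% = untreated growth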
Settings: for IC50: curve of first compound; for viability, T/C: stronger effect = lower value
Outline: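 Viability of mixed-cell spheroids was determined after exposure to pairwise combinations, one partner being inavolisib, alpelisib, duvelisib or copanlisib. Highest tested concentration matched clinical Cmax where known and 10 microM where not, descending in half-log steps.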

[1] = second compound 0.0316 µM, first compound 0.0316 µM
[2] = second compound 0.0316 µM, first compound 0.1 µM
[3] = second compound 0.1 µM, first compound 0.0316 µM
[4] = second compound 0.1 µM, first compound 0.1 µM
[5] = second compound 0.316 µM, first compound 0.0316 µM
[6] = second compound 0.316 µM, first compound 0.1 µM
[7] = second compound 1 µM, first compound 0.0316 µM
[8] = second compound 1 µM, first compound 0.1 µM

## CC(C)n1nc(-c2ccc3oc(N)nc3c2)c2c(N)ncnc21 + COc1c(OCCCN2CCOCC2)ccc2c3n(c(=NC(=O)c4cnc(N)nc4)nc12)CCN3
Second compound 0.00316 µM
  IC50: 56.6 nM
Second compound 0.01 µM
  IC50: 39.1 nM
Second compound 0.0316 µM
  IC50: 3.78 nM
Second compound 0.1 µM
  IC50: < 0.316 nM
Second compound 0.316 µM
  IC50: < 0.316 nM
Second compound 1 µM
  IC50: < 0.316 nM
Second compound 0.00316 µM, first compound 0.000316 µM
  viability, T/C: 103%
Second compound 0.00316 µM, first compound 0.001 µM
  viability, T/C: 82.3%
Second compound 0.00316 µM, first compound 0.00316 µM
  viability, T/C: 106%
Second compound 0.00316 µM, first compound 0.01 µM
  viability, T/C: 92.5%
Second compound 0.00316 µM, first compound 0.0316 µM
  viability, T/C: 77.6%
Second compound 0.00316 µM, first compound 0.1 µM
  viability, T/C: 23.1%
Second compound 0.01 µM, first compound 0.000316 µM
  viability, T/C: 103%
Second compound 0.01 µM, first compound 0.001 µM
  viability, T/C: 78.2%
Second compound 0.01 µM, first compound 0.00316 µM
  viability, T/C: 98.5%
Second compound 0.01 µM, first compound 0.01 µM
  viability, T/C: 78.3%
Second compound 0.01 µM, first compound 0.0316 µM
  viability, T/C: 57.7%
Second compound 0.01 µM, first compound 0.1 µM
  viability, T/C: 16.7%
Second compound 0.0316 µM, first compound 0.000316 µM
  viability, T/C: 80.9%
Second compound 0.0316 µM, first compound 0.001 µM
  viability, T/C: 58%
Second compound 0.0316 µM, first compound 0.00316 µM
  viability, T/C: 52.1%
Second compound 0.0316 µM, first compound 0.01 µM
  viability, T/C: 39.9%
[1]
  viability, T/C: 29.8%
[2]
  viability, T/C: 7.95%
Second compound 0.1 µM, first compound 0.000316 µM
  viability, T/C: 46%
Second compound 0.1 µM, first compound 0.001 µM
  viability, T/C: 36.5%
Second compound 0.1 µM, first compound 0.00316 µM
  viability, T/C: 31.2%
Second compound 0.1 µM, first compound 0.01 µM
  viability, T/C: 23.6%
[3]
  viability, T/C: 15.8%
[4]
  viability, T/C: 2.05%
Second compound 0.316 µM, first compound 0.000316 µM
  viability, T/C: 14.4%
Second compound 0.316 µM, first compound 0.001 µM
  viability, T/C: 17.3%
Second compound 0.316 µM, first compound 0.00316 µM
  viability, T/C: 12.6%
Second compound 0.316 µM, first compound 0.01 µM
  viability, T/C: 12.3%
[5]
  viability, T/C: 6.24%
[6]
  viability, T/C: 0.85%
Second compound 1 µM, first compound 0.000316 µM
  viability, T/C: 5.77%
Second compound 1 µM, first compound 0.001 µM
  viability, T/C: 4.9%
Second compound 1 µM, first compound 0.00316 µM
  viability, T/C: 6.77%
Second compound 1 µM, first compound 0.01 µM
  viability, T/C: 5.07%
[7]
  viability, T/C: 3.21%
[8]
  viability, T/C: 1.6%

## Cn1ncc(Cl)c1-c1cc(C(=O)NC(CN)Cc2cccc(F)c2)sc1Cl (centres undefined) + Cc1nc(NC(=O)N2CCCC2C(N)=O)sc1-c1ccnc(C(C)(C)C(F)(F)F)c1
Second compound 0.0316 µM
  IC50: > 10000 nM
Second compound 0.1 µM
  IC50: > 10000 nM
Second compound 0.316 µM
  IC50: > 10000 nM
Second compound 1 µM
  IC50: > 10000 nM
Second compound 3.16 µM
  IC50: > 10000 nM
Second compound 10 µM
  IC50: < 31.6 nM
[1]
  viability, T/C: 107%
[2]
  viability, T/C: 88.1%
Second compound 0.0316 µM, first compound 0.316 µM
  viability, T/C: 83.8%
Second compound 0.0316 µM, first compound 1 µM
  viability, T/C: 64.8%
Second compound 0.0316 µM, first compound 3.16 µM
  viability, T/C: 64.9%
Second compound 0.0316 µM, first compound 10 µM
  viability, T/C: 63.3%
[3]
  viability, T/C: 88.8%
[4]
  viability, T/C: 93.2%
Second compound 0.1 µM, first compound 0.316 µM
  viability, T/C: 80.3%
Second compound 0.1 µM, first compound 1 µM
  viability, T/C: 60%
Second compound 0.1 µM, first compound 3.16 µM
  viability, T/C: 55.8%
Second compound 0.1 µM, first compound 10 µM
  viability, T/C: 65.3%
[5]
  viability, T/C: 88.1%
[6]
  viability, T/C: 69.8%
Second compound 0.316 µM, first compound 0.316 µM
  viability, T/C: 75%
Second compound 0.316 µM, first compound 1 µM
  viability, T/C: 57.8%
Second compound 0.316 µM, first compound 3.16 µM
  viability, T/C: 60.7%
Second compound 0.316 µM, first compound 10 µM
  viability, T/C: 66.8%
[7]
  viability, T/C: 70%
[8]
  viability, T/C: 75.9%
Second compound 1 µM, first compound 0.316 µM
  viability, T/C: 67.7%
Second compound 1 µM, first compound 1 µM
  viability, T/C: 53.9%
Second compound 1 µM, first compound 3.16 µM
  viability, T/C: 64.6%
Second compound 1 µM, first compound 10 µM
  viability, T/C: 65.3%
Second compound 3.16 µM, first compound 0.0316 µM
  viability, T/C: 58.5%
Second compound 3.16 µM, first compound 0.1 µM
  viability, T/C: 59.4%
Second compound 3.16 µM, first compound 0.316 µM
  viability, T/C: 48.9%
Second compound 3.16 µM, first compound 1 µM
  viability, T/C: 49.7%
Second compound 3.16 µM, first compound 3.16 µM
  viability, T/C: 43.9%
Second compound 3.16 µM, first compound 10 µM
  viability, T/C: 61.8%
Second compound 10 µM, first compound 0.0316 µM
  viability, T/C: 35.1%
Second compound 10 µM, first compound 0.1 µM
  viability, T/C: 30%
Second compound 10 µM, first compound 0.316 µM
  viability, T/C: 33.3%
Second compound 10 µM, first compound 1 µM
  viability, T/C: 32.1%
Second compound 10 µM, first compound 3.16 µM
  viability, T/C: 39.7%
Second compound 10 µM, first compound 10 µM
  viability, T/C: 50.5%
